The text below walks through data of the supplement of paper PMC10307832.

Holding throughout (experiment): relative viability (nuclei count vs DMSO), 5 days (fraction); higher = more cells survive
Compound in the test “Cabozantinib + Dasatinib”: COc1cc2nccc(Oc3ccc(NC(=O)C4(C(=O)Nc5ccc(F)cc5)CC4)cc3)c2cc1OC [Cabozantinib] + Cc1nc(Nc2ncc(C(=O)Nc3c(C)cccc3Cl)s2)cc(N2CCN(CCO)CC2)n1 [Dasatinib] (partner 0.075 µM)
The method, boiled down:
(§1)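 Each reported value is a median over duplicate plates. It expresses relative viability: treated-well nuclei count divided by vehicle-well nuclei count. Lung cancer cell lines in 1536-well plates were dosed by pin tool a day after seeding, alone with one drug or with a fixed anchor-drug dose plus five library-drug doses (not always all listed) in √10 steps, and nuclei were counted after 5 days.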

Compound in test [1]: COc1cc2nccc(Oc3ccc(NC(=O)C4(C(=O)Nc5ccc(F)cc5)CC4)cc3)c2cc1OC [Cabozantinib] + N=C(N)NC(=N)NCCc1ccccc1 [Phenformin] (partner 250 µM)
The essentials:
as §1

Compound in the test “Cabozantinib + AZD7762”: COc1cc2nccc(Oc3ccc(NC(=O)C4(C(=O)Nc5ccc(F)cc5)CC4)cc3)c2cc1OC [Cabozantinib] + NC(=O)Nc1cc(-c2cccc(F)c2)sc1C(=O)N[C@H]1CCCNC1 [AZD7762] (partner 0.2 µM)
The essentials:
as §1

Compound in the test “Zosuquidar + Decitabine”: O[C@@H](COc1cccc2ncccc12)CN1CCN([C@@H]2c3ccccc3[C@@H]3[C@H](c4ccccc42)C3(F)F)CC1 [Zosuquidar] + Nc1ncn([C@H]2C[C@H](O)[C@@H](CO)O2)c(=O)n1 [Decitabine] (partner 2 µM)
The essentials: as §1

Take PC-3 [JPC-3]: the relative viability with Cabozantinib + Dasatinib (first compound 0.02 µM) was 0.89; in the test with Cabozantinib + Dasatinib (first compound 0.06325 µM), 1.21; with Cabozantinib + Dasatinib (first compound 0.6325 µM) it was 1.1; with Cabozantinib + Dasatinib (first compound 2 µM), 0.993; in test [1] (first compound 0.02 µM), 0.491; in test [1] (first compound 0.06325 µM) it was 0.505. Further, the relative viability in test [1] (first compound 0.6325 µM) turned out to be 0.457; in test [1] (first compound 2 µM) it was 0.462; in the test with Cabozantinib + AZD7762 (first compound 0.02 µM), 0.633; in the test with Cabozantinib + AZD7762 (first compound 0.06325 µM), 0.888; with Cabozantinib + AZD7762 (first compound 0.6325 µM), 0.859; in the test with Cabozantinib + AZD7762 (first compound 2 µM), 0.798. Further, the relative viability with Zosuquidar + Decitabine (first compound 0.01 µM) amounted to 0.886; with Zosuquidar + Decitabine (first compound 0.03162 µM), 0.925; in the test with Zosuquidar + Decitabine (first compound 0.1 µM), 0.791; in the test with Zosuquidar + Decitabine (first compound 0.3162 µM), 0.859; in the test with Zosuquidar + Decitabine (first compound 1 µM), 0.79.

PC-14: the relative viability with Cabozantinib + Dasatinib (first compound 0.02 µM) is 0.219; in the test with Cabozantinib + Dasatinib (first compound 0.06325 µM), 0.339; with Cabozantinib + Dasatinib (first compound 0.2 µM) it was 0.0309; with Cabozantinib + Dasatinib (first compound 0.6325 µM), 0.246; in the test with Cabozantinib + Dasatinib (first compound 2 µM), 0.195; in test [1] (first compound 0.02 µM), 0.531. Besides, the relative viability in test [1] (first compound 0.06325 µM) stood at 0.93; in test [1] (first compound 0.6325 µM), 0.591; in test [1] (first compound 2 µM), 0.552; with Cabozantinib + AZD7762 (first compound 0.02 µM) it was 0.323; with Cabozantinib + AZD7762 (first compound 0.06325 µM), 0.415; with Cabozantinib + AZD7762 (first compound 0.6325 µM) it was 0.406. Further, the relative viability was 0.354 with Cabozantinib + AZD7762 (first compound 2 µM); 0.224 in the test with Zosuquidar + Decitabine (first compound 0.01 µM); 0.176 in the test with Zosuquidar + Decitabine (first compound 0.03162 µM); 0.212 with Zosuquidar + Decitabine (first compound 0.1 µM); 0.195 in the test with Zosuquidar + Decitabine (first compound 0.3162 µM); 0.205 with Zosuquidar + Decitabine (first compound 1 µM).

RERF-LC-KJ: the relative viability in the test with Cabozantinib + Dasatinib (first compound 0.02 µM) was determined as 0.84; in the test with Cabozantinib + Dasatinib (first compound 0.06325 µM), 0.77; with Cabozantinib + Dasatinib (first compound 0.2 µM), 0.763; in the test with Cabozantinib + Dasatinib (first compound 0.6325 µM), 0.853; in the test with Cabozantinib + Dasatinib (first compound 2 µM), 0.923; in test [1] (first compound 0.02 µM), 0.442. The relative viability amounted to 0.404 in test [1] (first compound 0.06325 µM); 0.44 in test [1] (first compound 0.2 µM); 0.418 in test [1] (first compound 0.6325 µM); 0.413 in test [1] (first compound 2 µM); 0.811 in the test with Cabozantinib + AZD7762 (first compound 0.02 µM); 1.06 with Cabozantinib + AZD7762 (first compound 0.06325 µM). Also, the relative viability with Cabozantinib + AZD7762 (first compound 0.2 µM) came to 0.963; in the test with Cabozantinib + AZD7762 (first compound 0.6325 µM), 0.946; in the test with Cabozantinib + AZD7762 (first compound 2 µM) it was 1.01; with Zosuquidar + Decitabine (first compound 0.01 µM), 0.717; in the test with Zosuquidar + Decitabine (first compound 0.03162 µM) it was 0.727; with Zosuquidar + Decitabine (first compound 0.1 µM), 0.691. Moreover, the relative viability with Zosuquidar + Decitabine (first compound 0.3162 µM) came to 0.776; with Zosuquidar + Decitabine (first compound 1 µM) it was 0.691.

As for SW 900, the relative viability with Cabozantinib + Dasatinib (first compound 0.02 µM) was 0.541; in the test with Cabozantinib + Dasatinib (first compound 0.06325 µM), 0.373; with Cabozantinib + Dasatinib (first compound 0.2 µM), 0.541; with Cabozantinib + Dasatinib (first compound 0.6325 µM) it was 0.404; in the test with Cabozantinib + Dasatinib (first compound 2 µM) it was 0.23; in test [1] (first compound 0.02 µM) it was 0.692. Further, the relative viability in test [1] (first compound 0.06325 µM) was found to be 0.668; in test [1] (first compound 0.2 µM), 0.662; in test [1] (first compound 0.6325 µM), 0.552; in test [1] (first compound 2 µM), 0.408; in the test with Cabozantinib + AZD7762 (first compound 0.02 µM), 0.604; with Cabozantinib + AZD7762 (first compound 0.06325 µM) it was 0.761. Besides, the relative viability was determined as 0.559 in the test with Cabozantinib + AZD7762 (first compound 0.2 µM); 0.441 with Cabozantinib + AZD7762 (first compound 0.6325 µM); 0.448 with Cabozantinib + AZD7762 (first compound 2 µM); 0.478 with Zosuquidar + Decitabine (first compound 0.01 µM); 0.466 with Zosuquidar + Decitabine (first compound 0.03162 µM); 0.394 with Zosuquidar + Decitabine (first compound 0.3162 µM). Moreover, in the test with Zosuquidar + Decitabine (first compound 1 µM), the relative viability is 0.421.
